{"source": "patent US6864245B2", "about": "“Biocompatible poly-β-1→4-N-acetylglucosamine” (priority 1993, dated 2005)", "system": "HT29 colon tumors", "settings": "Intravenous Injection, daily", "note": "Where “and” joins values, the source holds several entries; their conditions need not be identical. Identical values can stand only once. Like-named read-outs stand apart in the source and are kept apart here.", "data": [{"smiles": "O=c1[nH]cc(F)c(=O)[nH]1", "note": "[5′-FU, 5′-fluorouracil]", "values": [{"measurement": "% Change", "setting": "High Dose", "result": "−67.0", "unit": "%"}, {"measurement": "Comments (death)", "setting": "High Dose", "result": "Died day 13"}, {"measurement": "Tumor Volume Post-treatment", "setting": "High Dose", "result": 132, "unit": "mm^3"}, {"measurement": "Tumor Volume Pre-Treatment", "setting": "High Dose", "result": 402, "unit": "mm^3"}, {"measurement": "Comments (death)", "setting": "Low Dose", "result": "Died day 13"}, {"measurement": "Tumor Volume Post-treatment", "setting": "Low Dose", "result": "703 mm^3 and 402 mm^3"}, {"measurement": "Tumor Volume Pre-Treatment", "setting": "Low Dose", "result": 402, "unit": "mm^3"}]}]}
